Values quoted from earlier work in US8859624B2, “Stable rasagiline composition” (Chongqing Pharmaceutical Research Institute Co., Ltd., priority 2009, dated 2014).

Details: taking food after oral administration

Structure (SMILES): C#CCN[C@@H]1CCc2ccccc21 [Rasagiline, rasagiline]
- decrease of blood drug concentration: 60%
